From patent US20220002279A1, “NOVEL IMIDAZOLE DERIVATIVE” (priority 2018, published 2022)
Converted amounts (≈) assume the structure as drawn. Where two headings read alike, the source gives them in different places.

How the values were obtained:
[1] = target: T1, Pseudomonas aeruginosa LpxC enzyme (Pseudomonas aeruginosa, UniProt P47205); assay: Inhibitory activity on Pseudomonas aeruginosa LpxC enzyme (fluorescamine method); type: biochemical; details: fluorescamine detection; 3.6 nmol/L enzyme, 20 μmol/L substrate, pH 8.0, 60 min
T1 construct: made in house; host or cells: Escherichia coli
T1 sequence (P47205 1-303): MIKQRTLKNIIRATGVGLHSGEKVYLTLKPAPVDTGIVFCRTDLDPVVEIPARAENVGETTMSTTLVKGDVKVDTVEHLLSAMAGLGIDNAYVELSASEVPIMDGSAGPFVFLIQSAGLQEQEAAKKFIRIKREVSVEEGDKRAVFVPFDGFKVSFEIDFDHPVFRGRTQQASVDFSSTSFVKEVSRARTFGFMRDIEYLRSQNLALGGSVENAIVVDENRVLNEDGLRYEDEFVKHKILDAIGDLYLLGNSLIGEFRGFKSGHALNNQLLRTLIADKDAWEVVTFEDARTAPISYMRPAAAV
Excerpt: Test Example 1 Evaluation of the Inhibitory Activity on Pseudomonas aeruginosa LpxC Enzyme (Fluoresamine Method)
To assay the activity of Pseudomonas aeruginosa LpxC enzyme, LpxC was reacted with its substrate, UDP-3-O-(R-3-hydroxydecanoyl)-N-acetylglucosamine, and the amount of the reaction product was quantified by the amino groups present in the product.
Specifically, to 3.6 nmol/L Pseudomonas aeruginosa LpxC enzyme (as acquired by preparing chromosomal DNA from Pseudomonas aeruginosa, obtaining the Pseudomonas aeruginosa LpxC genes by PCR (polymerase chain reaction) using LpxC specific primer, and incorporating the genes into a vector, followed by expression using Escherichia coli), 20 μmol/L UDP-3-O-(R-3-hydroxydecanoyl)-N-acetylglucosamine (Carbosynth) was added, and the mixture was incubated at room temperature for 60 minutes. This reaction was performed in a 40 mmol/L-HEPES buffer solution (pH 8.0) containing 0.02% Brij 35 and 25 nmol/L-zinc chloride. The reaction was terminated by the addition of 1.0 mg/mL-fluorescamine dissolved in a solvent obtained by mixing an equal amount of acetonitrile and dimethylformamide with the reaction mixture, and then, a 0.2 mol/L-sodium phosphate buffer solution (pH 8.0) was added thereto, and the amount of the reaction product was detected at an excitation wavelength/fluorescence wavelength=390 nm/495 nm. An inhibition curve was obtained by performing the aforementioned reaction in the presence of various concentrations of test compounds. From this inhibition curve, the concentration of test compound at which the amount of the reaction product was suppressed by 50% (IC50 value) was determined, which was used as an index for the inhibitory activity on Pseudomonas aeruginosa LpxC enzyme.

[2] = test system: Pseudomonas aeruginosa strain ATCC27853; assay: Antimicrobial activity, MIC by broth microdilution; type: cell-based; details: ATCC27853, 18 h, cation-adjusted Mueller-Hinton broth, about 5×10^5 CFU/mL, 35° C., about 18 hours, read-out: MIC Pseudomonas aeruginosa ATCC27853
In short: (§1)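 MIC read by eye as the lowest drug level lacking visible growth after roughly 18 h at 35° C. Cells from heart infusion agar, set to McFarland 0.5 and diluted, were inoculated at about 5×10^5 CFU/mL into cation-adjusted Mueller-Hinton broth with compound, per adapted CLSI microdilution.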

[3] = test system: Klebsiella pneumoniae strain ATCC13883; assay: Antimicrobial activity, MIC by broth microdilution; type: cell-based; details: ATCC13883, cation-adjusted Mueller-Hinton broth, about 5×10^5 CFU/mL, 35° C., about 18 hours, read-out: MIC Klebsiella pneumoniae ATCC13883
In short: as §1

[4] = test system: Escherichia coli strain ATCC25922; assay: Antimicrobial activity, MIC by broth microdilution; type: cell-based; details: ATCC25922, 18 h, cation-adjusted Mueller-Hinton broth, about 5×10^5 CFU/mL, 35° C., about 18 hours, read-out: MIC Escherichia coli ATCC25922
In short: as §1

[5] = target: T2, Escherichia coli LpxC enzyme (Escherichia coli, UniProt P0A725); assay: Inhibitory activity on Escherichia coli LpxC enzyme (LCMS method); type: biochemical
T2 construct: made in house; host or cells: Escherichia coli
T2 sequence (P0A725 1-305): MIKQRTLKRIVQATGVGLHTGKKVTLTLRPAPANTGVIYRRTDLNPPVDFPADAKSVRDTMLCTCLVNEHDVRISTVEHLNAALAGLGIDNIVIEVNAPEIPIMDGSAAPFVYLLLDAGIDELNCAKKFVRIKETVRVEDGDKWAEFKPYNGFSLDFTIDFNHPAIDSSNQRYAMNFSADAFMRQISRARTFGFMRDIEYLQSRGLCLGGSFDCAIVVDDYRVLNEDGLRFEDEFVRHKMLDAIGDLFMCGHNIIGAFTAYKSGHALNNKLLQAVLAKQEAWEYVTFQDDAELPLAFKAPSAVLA
Excerpt: Test Example 3 Evaluation of the Inhibitory Activity on Escherichia coli LpxC Enzyme (LCMS Method)
To assay the activity of Escherichia coli LpxC enzyme, LpxC was reacted with its substrate, UDP-3-O-(R-3-hydroxymyristoyl)-N-acetylglucosamine, and the amount of the reaction product was quantified by liquid chromatography tandem mass spectrometry.
Specifically, to 3.1 nmol/L Escherichia coli LpxC enzyme (as acquired by preparing chromosomal DNA from Escherichia coli, obtaining the Escherichia coli LpxC genes by PCR (polymerase chain reaction) using LpxC specific primer, and incorporating the genes into a vector, followed by expression using Escherichia coli), 20 μmol/L UDP-3-O-(R-3-hydroxymyristoyl)-N-acetylglucosamine (Alberta) was added, and the mixture was incubated at room temperature for 120 minutes. This reaction was performed in a 40 mmol/L-2-morpholinoethanesulfonic acid buffer solution (pH 6.5) containing 0.02% Brij 35, 25 nmol/L-zinc chloride, and 80 μmol/L-dithiothreitol. The reaction was terminated by the addition of acetonitrile containing 25 μmol/L-UDP-N-acetylglucosamine as an internal standard to the reaction mixture. Centrifugation was performed and the amount of the substrate and the reaction product in the supernatant was detected by liquid chromatography tandem mass spectrometry. An inhibition curve was obtained by performing the aforementioned reaction in the presence of various concentrations of test compounds. From this inhibition curve, the concentration of test compound at which the amount of the reaction product was suppressed by 50% (IC50 value) was determined, which was used as an index for the inhibitory activity on Escherichia coli LpxC enzyme.

[6] = LC-MS/MS detection, 3.1 nmol/L enzyme, 20 μmol/L substrate, pH 6.5, 120 min, read-out: IC50 (inhibitory activity on Escherichia coli LpxC enzyme, LCMS method)

SMILES | IC50 [1] | MIC [2] | MIC [3] | MIC [4] | IC50 [5, 6] | IC50 [5]
C[C@H](O)c1nccn1Cc1cc(-c2ccc(C#CC34CC(N)(C3)C4)cc2)on1 [Compound 17, (1S)-1-{1-[(5-(4-[(3-aminobicyclo[1.1.1]pentan-1-yl)ethynyl]phenyl}-1,2-oxazol-3-yl)methyl]-1H-imidazol-2-yl}ethan-1-ol] | 13.8 nM | 16 µg/mL (≈ 42.7 µM) | 0.5 µg/mL (≈ 1.34 µM) | 0.5 µg/mL (≈ 1.34 µM) | 49.1 nM | 
C[C@H](O)c1nccn1[C@H](CN)c1cc(-c2ccc(C#CCCCO)cc2)on1 [Compound 18, 5-(4-{3-[(1R)-2-Amino-1-{2-[(1S)-1-hydroxyethyl]-1H-imidazol-1-yl}ethyl]-1,2-oxazol-5-yl}phenyl)pent-4-yn-1-ol] | 6.04 nM | 16 µg/mL (≈ 42.1 µM) | 8 µg/mL (≈ 21 µM) |  |  | 69.7 nM
C[C@H](O)c1nccn1Cc1cc(-c2ccc(C#CC3CC3CN)cc2)on1 (stereo in doubt) [Compound 8, (1S)-1-(1-{[5-(4-{[trans-2-(aminomethyl)cyclopropyl]ethynyl}phenyl)-1,2-oxazol-3-yl]methyl}-1H-imidazol-2-yl)ethan-1-ol] | 30.5 nM | 16 µg/mL (≈ 44.1 µM) | 64 µg/mL (≈ 177 µM) |  | 67.8 nM | 
C[C@H](O)c1nccn1Cc1cc(-c2ccc(C#CC3CC(N)(C(N)=O)C3)cc2)on1 (stereo partly drawn) [Compound 25, 1-Amino-3-({4-[3-({2-[(1S)-1-hydroxyethyl]-1H-imidazol-1-yl}methyl)-1,2-oxazol-5-yl]phenyl}ethynyl)cyclobutane-1-carboxamide] |  | 32 µg/mL (≈ 78.9 µM) | 8 µg/mL (≈ 19.7 µM) | 2 µg/mL (≈ 4.93 µM) | 52.2 nM | 
